Assay results reported in ChEMBL document CHEMBL5505957 (Eur J Med Chem, 2024).

System: Influenza A virus
Test: microbe, parasite or virus in culture
Conditions: A/Puerto Rico/8/34, MDCK, 48 h

Cc1[nH]c(=O)[nH]c(=O)c1CCCc1cn(C2OC(CO)C(O)C2O)nn1 (stereo unspecified)
IC50: 68 µM
